Test results taken from ChEMBL document CHEMBL1201862, “PubChem BioAssay data set” (2004).
Calls of active or inactive are those of the source.

Assays:
[1] = target: T1, Short transient receptor potential channel 4 (Mus musculus, UniProt Q9QUQ5); assay: block of DAMGO-driven TRPC4 calcium entry – cell-based, HEK293 TRPC4/mu-opioid, Fluo-4 calcium, dose response (AID 434942); assay type: functional;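 also: potency of inhibitors blocking the TRPC4 calcium response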
T1 sequence (Q9QUQ5 whole entry): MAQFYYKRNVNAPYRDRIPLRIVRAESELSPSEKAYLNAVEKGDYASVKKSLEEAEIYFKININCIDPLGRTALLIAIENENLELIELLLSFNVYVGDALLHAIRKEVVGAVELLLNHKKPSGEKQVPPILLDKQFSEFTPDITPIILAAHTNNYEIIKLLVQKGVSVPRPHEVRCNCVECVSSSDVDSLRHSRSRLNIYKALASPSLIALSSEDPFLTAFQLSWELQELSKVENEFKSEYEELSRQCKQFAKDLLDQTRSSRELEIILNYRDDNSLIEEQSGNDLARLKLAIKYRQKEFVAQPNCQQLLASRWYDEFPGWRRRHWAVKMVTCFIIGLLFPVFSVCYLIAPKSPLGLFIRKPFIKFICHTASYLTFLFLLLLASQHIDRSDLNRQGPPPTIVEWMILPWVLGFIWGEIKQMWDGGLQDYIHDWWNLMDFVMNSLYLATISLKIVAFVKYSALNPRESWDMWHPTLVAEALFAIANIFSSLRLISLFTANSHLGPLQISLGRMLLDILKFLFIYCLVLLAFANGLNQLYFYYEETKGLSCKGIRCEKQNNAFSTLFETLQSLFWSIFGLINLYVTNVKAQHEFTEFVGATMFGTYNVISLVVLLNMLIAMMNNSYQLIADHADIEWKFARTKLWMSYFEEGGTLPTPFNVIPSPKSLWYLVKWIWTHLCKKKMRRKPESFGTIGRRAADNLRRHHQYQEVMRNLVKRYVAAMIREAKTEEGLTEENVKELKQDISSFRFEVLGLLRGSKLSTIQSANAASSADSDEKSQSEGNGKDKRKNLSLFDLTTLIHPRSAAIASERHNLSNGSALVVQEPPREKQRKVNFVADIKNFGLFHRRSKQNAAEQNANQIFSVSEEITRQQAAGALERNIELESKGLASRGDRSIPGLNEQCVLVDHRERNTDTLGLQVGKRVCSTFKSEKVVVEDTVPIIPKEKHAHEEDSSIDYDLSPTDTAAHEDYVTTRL

H9c2 = assay: cells; assay type: functional, cell-based; details: Rattus norvegicus, H9c2, Myocardium
Melanocortin receptor 4 = Melanocortin receptor 4 (Homo sapiens, UniProt P32245); assay: inhibitors of MC4R cAMP signaling – cell-based, TR-FRET, biased antagonists, dose response (AID 602298); assay type: functional;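 also: antagonist potency against agonist-stimulated cAMP production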
Chain of Melanocortin receptor 4 (P32245 whole entry): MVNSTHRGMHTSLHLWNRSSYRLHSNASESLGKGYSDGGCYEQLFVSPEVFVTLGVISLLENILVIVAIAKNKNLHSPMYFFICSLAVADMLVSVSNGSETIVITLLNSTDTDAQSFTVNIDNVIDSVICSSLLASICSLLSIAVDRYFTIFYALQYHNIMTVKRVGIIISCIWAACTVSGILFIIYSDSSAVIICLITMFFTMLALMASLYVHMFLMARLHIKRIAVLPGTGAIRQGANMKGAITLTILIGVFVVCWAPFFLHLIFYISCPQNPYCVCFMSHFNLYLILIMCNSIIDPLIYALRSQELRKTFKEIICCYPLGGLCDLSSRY

[2] = cAMP pathway inhibition in counterscreen cell line – TR-FRET cAMP detection, counter-screen for MC4R biased antagonist project, dose response (AID 602305); assay type: functional, cell-based;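 also: U2OS cells stimulated with forskolin near its EC80 as the cAMP inducer; potency is for inhibition of forskolin-stimulated cAMP signaling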
Cytochrome P450 2C9 = Cytochrome P450 2C9 (Homo sapiens, UniProt P11712)
Chain of Cytochrome P450 2C9 (P11712 whole entry): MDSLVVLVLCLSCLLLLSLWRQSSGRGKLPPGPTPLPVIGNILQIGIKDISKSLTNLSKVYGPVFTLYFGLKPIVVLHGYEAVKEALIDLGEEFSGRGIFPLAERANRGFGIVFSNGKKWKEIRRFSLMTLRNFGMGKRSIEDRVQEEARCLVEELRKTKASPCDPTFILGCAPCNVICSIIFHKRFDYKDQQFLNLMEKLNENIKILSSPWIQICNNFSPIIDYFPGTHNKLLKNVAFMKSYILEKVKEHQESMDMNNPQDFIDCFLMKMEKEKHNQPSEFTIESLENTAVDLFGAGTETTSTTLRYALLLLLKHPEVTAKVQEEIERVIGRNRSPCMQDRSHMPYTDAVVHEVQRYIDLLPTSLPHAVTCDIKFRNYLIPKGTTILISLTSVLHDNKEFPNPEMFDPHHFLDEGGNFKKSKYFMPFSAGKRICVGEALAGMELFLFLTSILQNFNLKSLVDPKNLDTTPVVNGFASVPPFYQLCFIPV

[3] = target: T2, Corticotropin-releasing factor receptor 2/Corticotropin-releasing factor-binding protein (Homo sapiens, UniProt P24387+Q13324); assay: Dose Response confirmation of uHTS hits for small molecule antagonists of the CRF-binding protein and CRF-R2 receptor complex.; assay type: functional; details: read-out: IC50_Mean
T2 sequence (Q13324 whole entry): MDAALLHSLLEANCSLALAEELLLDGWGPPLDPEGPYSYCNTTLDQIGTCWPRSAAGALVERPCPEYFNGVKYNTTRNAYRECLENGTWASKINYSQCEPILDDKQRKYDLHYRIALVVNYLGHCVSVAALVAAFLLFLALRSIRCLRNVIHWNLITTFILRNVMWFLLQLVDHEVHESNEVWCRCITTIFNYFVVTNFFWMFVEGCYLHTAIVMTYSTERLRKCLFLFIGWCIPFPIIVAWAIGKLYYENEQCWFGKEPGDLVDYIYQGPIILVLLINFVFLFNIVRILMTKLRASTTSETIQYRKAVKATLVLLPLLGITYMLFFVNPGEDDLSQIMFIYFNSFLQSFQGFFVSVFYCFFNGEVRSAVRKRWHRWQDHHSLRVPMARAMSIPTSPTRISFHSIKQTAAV
T2 sequence (P24387 whole entry): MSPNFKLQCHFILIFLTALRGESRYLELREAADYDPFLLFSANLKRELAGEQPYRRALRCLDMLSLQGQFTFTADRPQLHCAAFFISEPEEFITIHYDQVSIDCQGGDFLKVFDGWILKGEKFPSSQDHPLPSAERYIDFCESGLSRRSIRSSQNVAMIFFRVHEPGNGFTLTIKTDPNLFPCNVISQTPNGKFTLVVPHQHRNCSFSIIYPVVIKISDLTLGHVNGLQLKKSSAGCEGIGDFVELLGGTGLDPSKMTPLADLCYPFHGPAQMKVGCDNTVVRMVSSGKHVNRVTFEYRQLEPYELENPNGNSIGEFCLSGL

[4] = target: T2, Corticotropin-releasing factor receptor 2/Corticotropin-releasing factor-binding protein; assay: activators of CRF receptor 2 with binding protein – uHTS hits, confirmation (AID 602473); assay type: functional; details: read-out: EC50_Mean
[5] = target: T1, Short transient receptor potential channel 4; assay: calcium entry via TRPC4 opening agents – cell-based, HEK293 TRPC4/mu-opioid, Fluo-4 calcium, dose response (AID 434937); assay type: functional
[6] = intracellular Trypanosoma cruzi inhibitors in host cells – cell-based, plate reader, cherry-pick samples, set 3, dose response (AID 651818); assay type: functional;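 also: compounds incubated with infected cells for about four days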
[7] = viability of PTEN-deleted HCT116 cells – cell-based, HCT116 PTEN knockout, dose response (AID 1047); assay type: functional;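 also: HCT116 colon tumor cells with PTEN knocked out; cells exposed to compound for 60 hours before readout; potency for loss of cell viability measured by luminescence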
[8] = viability of HCT116 lacking mutant beta-catenin – cell-based, human colon tumor, dose response (AID 1045); assay type: functional;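 also: HCT116 colon tumor cells with beta catenin knocked out; cells exposed to compound for 60 hours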
[9] = loss of viability in HepG2 cells – cell-based, CellTiter-Glo, cherry-picked, cytotoxicity control for Shn3 inhibitor project, dose response (AID 624134); assay type: functional
Cytochrome P450 2D6 = Cytochrome P450 2D6 (Homo sapiens, UniProt P10635);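 also: CYP2D6 member of a cytochrome P450 panel assay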
Chain of Cytochrome P450 2D6 (P10635 whole entry): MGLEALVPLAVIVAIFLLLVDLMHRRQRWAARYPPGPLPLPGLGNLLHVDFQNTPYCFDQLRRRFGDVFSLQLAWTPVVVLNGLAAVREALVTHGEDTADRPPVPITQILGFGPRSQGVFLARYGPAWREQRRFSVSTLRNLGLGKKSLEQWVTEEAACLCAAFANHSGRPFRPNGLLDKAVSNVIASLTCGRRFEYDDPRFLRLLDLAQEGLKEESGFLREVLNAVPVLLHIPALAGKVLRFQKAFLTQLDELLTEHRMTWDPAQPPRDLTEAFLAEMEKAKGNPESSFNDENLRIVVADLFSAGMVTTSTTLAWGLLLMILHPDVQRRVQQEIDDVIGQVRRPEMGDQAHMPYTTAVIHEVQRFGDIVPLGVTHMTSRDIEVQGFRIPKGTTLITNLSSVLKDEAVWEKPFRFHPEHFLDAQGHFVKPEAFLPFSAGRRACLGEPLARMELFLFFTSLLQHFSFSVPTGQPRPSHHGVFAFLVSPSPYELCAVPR

[10] = reduction of Shn3 3'UTR-driven luciferase in osteoblasts – cell-based, Clone20 osteoblasts, firefly luciferase, cherry-picked, dose response (AID 624132); assay type: functional;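 also: firefly luciferase luminescence from reporter carrying the Shn3 3'UTR in osteoblasts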
[11] = NIH3T3 cell viability loss – ATP luminescence, mouse fibroblasts, counter-screen, dose response (AID 2010); assay type: functional, cell-based;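 also: cells exposed to compound for about 90 hours before reading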
Paired box protein Pax-8 = Paired box protein Pax-8 (Homo sapiens, UniProt Q06710); assay: PAX8 transcriptional activity inhibition in RMG-I – RMG-I cells, luciferase, cherry-pick, dose response (AID 687027); assay type: functional, cell-based;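 also: luciferase reporter driven by Pax8 target thyroperoxidase promoter measured by SteadyGlo luminescence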
Chain of Paired box protein Pax-8 (Q06710 whole entry): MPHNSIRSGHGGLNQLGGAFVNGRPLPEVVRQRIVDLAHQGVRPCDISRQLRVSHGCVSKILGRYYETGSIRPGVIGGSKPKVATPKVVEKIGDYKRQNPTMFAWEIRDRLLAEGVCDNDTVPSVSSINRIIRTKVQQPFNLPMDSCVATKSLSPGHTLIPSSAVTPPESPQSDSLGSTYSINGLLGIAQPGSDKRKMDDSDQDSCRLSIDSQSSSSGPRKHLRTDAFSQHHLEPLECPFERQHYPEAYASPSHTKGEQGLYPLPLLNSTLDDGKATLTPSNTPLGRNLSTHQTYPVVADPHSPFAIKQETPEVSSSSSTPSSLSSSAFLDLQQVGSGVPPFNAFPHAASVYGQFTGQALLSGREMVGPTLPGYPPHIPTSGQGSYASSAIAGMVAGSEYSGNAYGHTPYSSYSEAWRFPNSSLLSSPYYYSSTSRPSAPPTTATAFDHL

Streptokinase A = target: T3, Streptokinase A (Streptococcus pyogenes serotype M1, UniProt P10520); assay: viability-normalized secreted streptokinase activity reduction – plasminogen activation absorbance, OD405, dose response (AID 1914); assay type: functional, Streptococcus pyogenes M1 GAS;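 also: secreted streptokinase activity via plasminogen activation per viability signal from cell pellet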
T3 sequence (P10520 whole entry): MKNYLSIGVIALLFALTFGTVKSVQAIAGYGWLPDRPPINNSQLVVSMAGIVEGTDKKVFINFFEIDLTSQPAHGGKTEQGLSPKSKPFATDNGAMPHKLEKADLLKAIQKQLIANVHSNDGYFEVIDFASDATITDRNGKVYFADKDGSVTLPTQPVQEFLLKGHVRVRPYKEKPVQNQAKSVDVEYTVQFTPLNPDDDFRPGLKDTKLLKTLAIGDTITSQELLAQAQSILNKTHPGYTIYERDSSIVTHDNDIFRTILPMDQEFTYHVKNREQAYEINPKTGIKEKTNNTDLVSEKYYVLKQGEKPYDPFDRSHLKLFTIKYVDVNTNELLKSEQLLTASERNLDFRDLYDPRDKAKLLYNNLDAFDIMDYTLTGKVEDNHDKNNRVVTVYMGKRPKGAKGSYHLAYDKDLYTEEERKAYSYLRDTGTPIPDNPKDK

[12] = Luminescence Cell-Based Dose Retest to Confirm Inhibitors of Cancer Stem Cells. [Related pubchem assays (depositor defined):AID2717, AID2721]; assay type: functional; details: Homo sapiens
[13] = system: Streptococcus sp. 'group A'; assay: Streptococcus pyogenes SK(-)GAS viability under kanamycin – luminescence, BacTiterGlo, confirmation, counter-screen for streptokinase expression inhibitor project, dose response (AID 1900); assay type: functional, organism-based
[14] = Trypanosoma cruzi growth suppression in host cells – NIH3T3 host cells, beta-gal luminescence, confirmation (AID 2044); assay type: functional, cell-based;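 also: intracellular parasites grown in NIH/3T3 mouse fibroblasts as host cells; luminescent beta-galactosidase reporter signal from transgenic T. cruzi replicating inside host cells; inhibitors lower the luminescence signal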
Streptococcus = assay: GAS UMAA2166 growth inhibition – luminescence, BacTiterGlo, counter-screen for streptokinase expression inhibitor project, dose response (AID 1915); assay type: functional, organism-based; details: read-out: EC50;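 also: potency for reduction of bacterial viability or growth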

## CC(=O)C1=C(O)C(=O)N(Cc2ccccc2)C1c1ccc([N+](=O)[O-])cc1 (stereo unspecified)
[1]
  EC50: 1.19 µM (active)

## CC(=O)Nc1ccc(S(=O)(=O)Nc2nc3ccc(C)cc3s2)cc1
[1]
  EC50: 3.76 µM (active)

## O=C(NCC(=O)N(Cc1ccccc1)C(C(=O)NC1CCCCC1)c1ccco1)c1ccco1 (stereo unspecified)
H9c2
  IC50: 42.2 µM (inactive)

## COC(=O)c1c(NC(=O)COC(=O)c2ccc(Cl)cc2[N+](=O)[O-])sc2c1CCCCC2
Melanocortin receptor 4
  IC50: > 64.6 µM (inactive)
[2]
  IC50: > 64.6 µM (inactive)

## CCn1c(-c2ccccc2Cl)nn(CC(=O)Nc2ccccc2OC)c1=S
Cytochrome P450 2C9
  AC50: inconclusive

## O=C(NCc1ccccc1)C1=C[C@H](c2ccccc2)C[C@H](OCc2ccc(CO)cc2)O1
[3]
  IC50: > 47.1 µM (inactive)
[4]
  EC50: > 53 µM (inactive)
[5]
  EC50: 1.06 µM (active)

## COc1ccc2sc(-c3ccc(S(C)(=O)=O)cc3)c(-c3ccc(C(N)=O)cc3)c2c1
Melanocortin receptor 4
  IC50: 11.5 µM (inactive)
[2]
  IC50: 25.1 µM (inactive)

## Cc1nnsc1SCC(=O)O
Cytochrome P450 2C9
  AC50: inconclusive

## NC(=O)c1cccc(Nc2nc(C(N)CCc3ccccc3)cs2)n1 (stereo unspecified)
H9c2
  IC50: 18.3 µM (active)

## C[C@@H]1CN([C@@H](C)CO)C(=O)c2cccc(NC(=O)Nc3ccc(C(F)(F)F)cc3)c2O[C@@H]1CN(C)Cc1ccc(C(F)(F)F)cc1
[6]
  AC50: 3.89 µM (active)

## Cc1noc(C)c1S(=O)(=O)Nc1ccc2c(c1)CC(=O)N([C@@H](C)CO)C[C@H](C)[C@@H](CN(C)Cc1ccc(-c3ccccc3)cc1)O2
[6]
  AC50: 4.33 µM (active)

## COc1ccc(S(=O)(=O)Nc2ccc3c(c2)CC(=O)N([C@@H](C)CO)C[C@@H](C)[C@@H](CN(C)Cc2ccc(C(=O)Nc4ccccc4N)cc2)O3)cc1
[6]
  AC50: 1.62 µM (active)

## Cc1ccc(S(=O)(=O)Nc2cccc3c2O[C@@H](CN(C)Cc2ccc(-c4ccccc4)cc2)[C@@H](C)CN([C@@H](C)CO)C3=O)cc1
[6]
  AC50: 3.36 µM (active)

## Oc1ccc(/N=C/C=C/c2ccc(Br)cc2)cc1-c1nc2ccccc2s1
[7]
  EC50: 28.8 µM (active)
[8]
  EC50: 22.4 µM (active)

## Cc1cc(O)c(C(C)C)cc1C1(c2cc(C(C)C)c(O)cc2C)OC(=O)c2ccccc21
[9]
  AC50: 18.8 µM (active)
Cytochrome P450 2D6
  AC50: 3.98 µM (inconclusive)
[10]
  AC50: 9.45 µM (active)
[11]
  EC50: > 60 µM (not active)
Paired box protein Pax-8
  AC50: 8.19 µM (active)
Melanocortin receptor 4
  IC50: > 64.6 µM (inactive)
Streptokinase A
  EC50: > 150 µM (not active)
[2]
  IC50: > 64.6 µM (inactive)
[12]
  AC50: 1.71 µM (active)
[13]
  EC50: 1.24 µM (active)
[14]
  EC50: 2.11 µM (active)
Streptococcus
  EC50: 3.87 µM (active)
